Assays:
[1] = clinical; conditions: for mean concentration in blister fluid: pre-dose on Day 9
Source text: In parts 1 and 2 of the clinical study (SAD and MAD), skin blisters were induced on the arm of subjects in selected cohorts.
(§1) Blister fluid samples were collected at Day 1 pre-dose and Day 2 pre-dose in SAD cohort 4 as well as Day 1 pre-dose and Day 9 predose in MAD cohort 2-5.

[2] = First in human trial Part 1 (SAD): plasma pharmacokinetics
Source text: (§2) The study consisted of a part 1, single ascending dose (SAD) and a part 2 multiple ascending dose (MAD).
(§3) Part 1 was a randomized, subject-blinded and Investigator-partial-blinded, placebo-controlled, single ascending oral dose study.

[3] = test system: Leukotriene B4 (LTB4) in blood; experiment: Leukotriene B4 (LTB4) in human plasma of ex vivo stimulated whole blood (FIH PD biomarker, LC-MS/MS)
Experimental: Therefore, LTB4 concentrations were determined in plasma of ex-vivo stimulated whole blood by a LC-MS/MS method.
Ex-vivo stimulation was performed at the clinical site according to the following procedure: Whole blood (500 μL) were stimulated for 30 min using Calcium Ionophore A23187.
Human plasma was processed with organic precipitation followed by separation by reverse phase high performance liquid chromatography with tandem mass spectrometric detection.
AB Sciex QTrap 5500 MS/MS Turbo Spray Ion Drive negative ion mode.
Sample from each subject and time point was prepared and analyzed in three aliquots. Aliquot one and two contained plasma from ex-vivo stimulated whole blood, while aliquot three as negative control contained plasma from non-stimulated whole blood.
LTB4 concentration data were calculated as mean of concentration of aliquot one and two. Concentration of aliquot three was not be included in the calculation. The change from baseline and percent inhibition (percent of baseline) for each biomarker was calculated. Baseline was the mean of the Baseline and Day 1, −1 h measurements.

[4] = test system: LTB4 biosynthesis in lesional skin biopsies of HS patients; experiment: LTB4 biosynthesis in ionophore-stimulated skin biopsies of HS patients (LC-MS/MS); type: cell-based, human; conditions: 5 uM inhibitor 2 h, then 2 h 10 ug/mL ionophore
Experimental: Frozen human skin biopsies from healthy skin or discard HS lesions (on average 500 mg) were pulverized using mechanical force (Covaris) and homogenized in 4 mL of methanol containing deuterium labelled internal standards (ISTDs) using a bead-beating device (2×20 sec cycles of 5000 rpm, Precellys) maintained at low temperature. Then, samples were kept at −20° C./45 min to allow for protein precipitation and centrifuged at 13000 rpm for 10 min at 4° C. The supernatants were then evaporated (Genevac) until complete dryness and reconstituted in 70 μL of methanol:water (50%/50%; v/v) followed by injection in the LC-MS/MS system. Calibration curves were freshly prepared by serial dilution of pure standards in methanol:water (50%/50%, v/v) containing ISTDs and quantitation was done by comparing metabolite to ISTD peak area ratios in samples to that of calibrators.
Two analytical platforms were employed for data acquision depending on instrument availability: 1) Waters H class UPLC system coupled to a Waters XevoTQS triple quadrupole mass (QQQ) spectrometer and 2) a Dionex Ultimate 3000RS UPLC coupled to a Sciex6500+ QQQ. Separation of lipids was achieved using reverse-phase columns ACQUITY UPLC BEH C18 1.7 μm, 2.1×50 mm and CORTECS UPLC C18 1.6 μm, 2.1×50 mm heated at 40° C., respectively. The flow rate was set to 0.180 mL/min and the mobile phase consisted of water-acetic acid (99.99/0.01; v/v) (A) and methanol-acetonitrile-acetic acid (B) (50/50/0.01; v/v/v). The eluent gradient was maintained at 45% of B for 2 min, follow by 45%-65% of B during 2-16 min, from 65%-100% during 16-19 min and 100% of B from 19-22 min. From 23-30 min the column was re-equilibrated with initial conditions. Ionization was performed using an ESI source operated in negative ion mode. Fragmentation was tuned for each compound individually.
. Skin biopsies were then harvested, lipids extracted and analyzed for generation of LTB4 by LC-MS/MS as described above. Stimulated skin biopsies of HS lesions generated a large amount of the lipid mediator LTB4. […]. (FIGS. 10 and 11)
Lesional skin biopsies of HS patients were left untreated or fully stimulated with ionophore to induce LTB4 biosynthesis in the presence or absence of a LTA4H inhibitor
LTB4 quantities are given in fmol/mg tissue. Shown are representative results obtained with one donor per compound out of several tested.

[5] = First in human trial (SAD/MAD): safety and tolerability in healthy subjects
Experimental: as §2, §3
(§4) Cohort 1: multiple once daily (qd) oral dose of 5 mg or matching placebo Cohort 2: multiple once daily (qd) oral dose of 15 mg or matching placebo Cohort 3: multiple oral daily dose of 20 mg or matching placebo administered twice daily (bid) Cohort 4: multiple oral daily dose of 40 mg or matching placebo administered twice daily (bid) Cohort 5: multiple oral daily dose of 80 mg or matching placebo administered twice daily (bid) Part 2 Multiple Ascending Dose Design (qd)—Overview of the Study Part 2 Multiple Ascending Dose Design (Bid)—Overview of the Study

[6] = First in human trial Part 2 (MAD): plasma pharmacokinetics
Experimental: as §2, §4

[7] = test system: LTB4 in human skin blister fluids; experiment: LTB4 in cantharidin induced skin blister fluid (FIH); type: in vivo; conditions: 40 mg daily dose (20 mg BID)
Experimental: In parts 1 and 2 of the clinical study (SAD and MAD), skin blisters were induced on the arm of subjects in selected cohorts. For this 10 mm diameter filter paper discs humected with a solution of cantharidin (such as cantharone) were applied on the arm of the subject, inducing an epidermal blister, and the blister fluid was collected approximately 24 hours (+/−1 hr) after the application.
as §1
Blister fluid samples were received frozen on dry ice and stored at −70° C. or below until analysis. On the day of analysis, samples were taken out of the freezer and immediately extracted after Thawing.
90 μL of blister fluid (sample or QC sample) was enriched with 5 μL of internal standard solution IS-L-2 (deuterated Leukotrienes and lipoxin at 50 ng/mL) and vortexed in a micro centrifuge tube. 90 μL of methanol with 0.1% formic acid was added. This was followed by 5 minutes vortex mixing and 10 minutes sonication on ice. The samples were incubated at −20° C. in a freezer for 40 minutes. This was followed by centrifugation at 16,000 rpm (27,500×g) at 4° C. for 20 minutes. 160 μL of the supernatant was transferred onto Millipore 5 kDa MWCO filters. MWCO filters have previously been cleaned by centrifuging 500 μL methanol/water 1/1 thru the filters. […]

[8] = 5 mg qd to 80 mg bid (16-fold per dosing interval)

With `N[C@@H](CC(=O)O)Cn1nnc(-c2ccc(Oc3ncc(Cl)cc3F)cc2)n1` [compound of example 1, (S)-3-amino-4-(5-(4-((5-chloro-3-fluoropyridin-2-yl)oxy)phenyl)-2H-tetrazol-2-yl)butanoic acid] the “mean concentration in blister fluid” value ([1]; Part 2, 15 mg qd) was 4.62 ng/mL, the “mean concentration in blister fluid” value ([1]; Part 2, 80 mg bid) was 233 ng/mL and the Kp at 24 h ([1]; human, in vivo, 30 mg) was 0.14. The concentration at 24 h ([1]; human, in vivo, 30 mg) was 4.67 ng/mL, the “dose proportionality of AUClast over the whole dose range” value ([2]; 5 mg to 2 times 100 mg) was “demonstrated” and the “AUC0-24 h increase with dose” value ([2]; 40-fold increase in daily dose (5 mg to 100 mg bid)) was 75 fold. The “increase in dose over which AUC0-24 h can be considered dose proportional” value ([2]; SAD) was ≤ 2.57 fold, the “increase in dose over which Cmax can be considered dose proportional” value ([2]; SAD) was “up to 4.50 fold” and the “Cmax increase with dose” value ([2]; dose increase from 5 to 100 mg (20-fold)) was 21.7 fold. The Tmax ([2]; human, in vivo, po) was 1 to 1.5 h, the half-life ([2]; human, in vivo, po) was 10.2 to 21.4 days and the “suppression of LTB4 in blood at steady state” value ([3]; 40 mg daily dose (20 mg BID)) was “nearly complete suppression”. The “blood cell stimulated LTB4 release, reduction from baseline” value ([3]; SAD 5 mg, at 24 hours) was 25-50%, the “LTB4 generation by stimulated skin biopsies of HS lesions” value (shortened to “LTB4 generation”) [4] was “almost no LTB4” and the “LTB4 generation” value ([4]; listed as Compound of Example 1) was “suppresses”. The “findings in physical exam, vital signs or ECGs related to compound” value ([5]; SAD and MAD, healthy subjects) was “No significant findings”, the maximal tolerated dose ([5]; SAD up to 200 mg total daily dose, MAD up to 80 mg BID for 12 days) was “no maximal tolerated dose was established” and the “adverse events leading to study discontinuation” value ([5]; SAD up to 2 x 100 mg, MAD up to 80 mg BID for 12 days, healthy subjects) was “No adverse events led to study discontinuation”. For the same molecule, the tolerability ([5]; doses up to 80 mg bid (160 mg daily dose) over 12 days, healthy subjects) was “well tolerated”, the “treated subjects with increases in lipase” value ([5]; one SAD 5 mg, two MAD 80 mg BID, asymptomatic, transient) was “Three” and the “amylase increase accompanying lipase increase” value ([5]; the three subjects with lipase elevations, mild) was ≤ 1.5 ULN. For the same molecule, the “AUC on Day 12 (AUC0-12 h,ss bid; AUC0-24 h,ss qd) increase with dose” value [6, 8] was 20.9 fold, the “Cmax on Day 12 increase with dose” value [6, 8] was 17.9 fold and the “time to reach steady state exposure” value ([6]; BID oral dosing, fed state) was 3 to 4 days. For the same molecule, the “increase in dose over which AUCtau can be considered dose proportional” value ([6]; MAD) was ≤ 6.29 fold, the “increase in dose over which Cmax,ss can be considered dose proportional” value ([6]; MAD) was “up to 2.12 fold” and the “accumulation to steady state” value ([6]; all higher doses (above 5 mg qd)) was ≤ 1.4 fold. For the same molecule, the “mean Racc, day 1” value ([6]; day 1 of the bid regimen) was 1.09-1.29, the “mean accumulation to steady state” value ([6]; lowest dose of 5 mg qd) was 2.1 fold and the “time at which steady state is achieved” value ([6]; morning pre-dose concentrations, MAD) was ~3 days. For the same molecule, the “dose proportionality criteria for AUCtau” value ([6]; steady state, 5 mg qd to 40 mg bid) was “met” and the “suppression of LTB4 in human skin blister fluids” value [7] was 90%.

With `N[C@@H](CC(=O)O)Cn1nnc(-c2ccc(Oc3ccc(Cl)cc3)cc2)n1` [compound of embodiment 3D, (S)-3-amino-4-(5-(4-(4-chlorophenoxy)-phenyl)-2H-tetrazol-2-yl)butanoic acid] the “LTB4 generation” value [4] was “almost no LTB4” and the “LTB4 generation” value ([4]; listed as Compound of embodiment 3D) was “suppresses”.

— patent US20220117949A1, “LTA4H INHIBITORS FOR THE TREATMENT OF HIDRADENITIS SUPPURATIVA” (NOVARTIS AG, priority 2019, published 2022)
